This is an account of results in patent US12049646B2, “SC-beta cells and compositions and methods for generating the same” (President and Fellows of Harvard College, priority 2013, dated 2024).

Common to all, as to assay type: cell-based, human
In test [1] the test system is SC-β cells. As to the kind of experiment: GSIS of SC-β cells after adding factors to the CMRL media at the last differentiation step (Stage 6). The following applies: factor added to CMRL media containing Alk5 inhibitor and T3 hormone, versus CMRL only, CMRL+Alk5 inhibitor+T3 or S3+Alk5 inhibitor+T3; for stimulation index (ratio of insulin secreted in high glucose to low glucose): 15 mM vs 2.5 mM glucose. From the text:
To induce the in vitro maturation of at least some of the Pdx1-positive, NKX6-1-positive, insulin-positive endocrine cells into SC-β cells, the Pdx1-positive, NKX6-1-positive, insulin-positive endocrine cells are maintained in a suitable culture medium for a sufficient period of time. […] Adding additional factors to the CMRL media at the last step of differentiation (Stage 6) (FIG. 14A), however, was also found to generate a better glucose stimulated insulin secretion (GSIS) response by SC-β cells as measured by either stimulation index between high and low glucose challenges or by the amount of insulin released. Such additional factors may include, but are not limited to, Sant1, XXI, and SSP. The stimulation index, as calculated by the ratio of insulin secreted in high glucose (15 mM) to low glucose (2.5 mM), was greater for the SC-β cells maintained in a CMRL media containing Alk5 inhibitor, T3 hormone and either Sant1, XXI or SSP than those SC-β cells maintained in only CMRL media, CMRL media containing Alk5 inhibitor and T3 hormone, or S3 media containing Alk5 inhibitor and T3 hormone (FIG. 14B). Furthermore, the amount of insulin secreted was greater for the SC-β cells maintained in a CMRL media containing Alk5 inhibitor, T3 hormone and either Sant1, XXI or SSP than those SC-β cells maintained in only CMRL media, CMRL media containing Alk5 inhibitor and T3 hormone, or S3 media containing Alk5 inhibitor and T3 hormone (FIG. 14C).
Alternatively, Days 21-35: CMRLS+10 μM Alk5i II+1 μM T3+Sant1.
Alternatively, Days 21-35: CMRLS+10 μM Alk5i II+1 μM T3+XXI.
Alternatively, Days 21-35: CMRLS+10 μM Alk5i II+1 μM T3+SSP.

The test system of test [2] is hPSC derived cells. The test is described as follows: Protocol modifications at Steps 3-6: cell survival and marker-positive populations. The note with it: for cell survival: treatment during Steps 3-5 of differentiation. The source says:
One challenge for the stem cell field has been generating a sufficient quantity of SC-β cells that can be useful for drug screening, disease modeling, or therapeutic use. For example, hES cells are technically difficult to culture, are vulnerable to apoptosis upon cellular detachment and dissociation, undergo massive cell death particularly after complete dissociation, and have low cloning efficiency. (Watanabe, K. et al., Nature Biotechnology 25, 681-686 (2007)). As a result, the quantity of viable SC-β cells yielded may be low. By modify the protocol between Steps 3 and 6 in the manner shown in FIG. 15A, more pure NKX6.1+ endocrine clusters can be generated (FIG. 15B) leading to more SC-β cells that can be therapeutically useful.
In Steps 3-5, for instance, cell survival can be improved by adding a rho-associated protein kinase inhibitor, or a Rock inhibitor. It is believed that the addition of a Rock inhibitor enhances survival of ES cells by preventing dissociation-induced apoptosis thus increasing their cloning efficiency. (Watanabe et al.) Examples of Rock inhibitors include, but are not limited to, Y-27632, Fasudil/HA1077, and H-1152.
In addition to treating the cells with a Rocki inhibitor, the cells in Steps 3-4 can be treated with ActivinA alone or in combination with Nicotinamide. […] Since SOX2 and NKX6-1 are mutually exclusive (FIG. 15E), down-regulation of SOX2 results in the up-regulation of NKX6-1, a marker for a mature pancreatic β cell.
In Steps 5-6, cell survival can further be enhanced by treating cells with staurosporine. Staurosporine is known to be an activator of neuronal, glial, and stem cell-like neurosphere differentiation and is also thought to induce apoptosis. (Schumacher, et al., Mol. Cell. Neurosci. 2003; 23(4): 669-680).
Finally, cell survival can further be enhanced by treating cells with a culture medium containing Alk5i, T3 in combination with XXI, a γ-secretase inhibitor that improves β cell maturation.
Cells were dispersed into single-cell suspension by incubation in TrypLE Express at 37° C. for 10-30 min in a 15 ml falcon tube. Starting at stage 5, clusters take longer to dissociate into single cells. Clusters should be incubated with TrypLE Express until they dissociate to single cells upon mixing by pipetting gently up and down with a P1000. The TrypLE Express was quenched with 3-4 times media and cells were spun down for 5 min at 1000 rpm. Cells were washed twice in PBS and transferred to a 1.7 ml Safe seal microcentrifuge tube (Bioscience Inc.; 11510). Make sure having 1-10 mio cells/tube and use 0.5-1 ml volumes in the following. Cells were resuspended in 4% paraformaldehyde (PFA) (Electron Microscopy Science Nm; 15710) and incubated on ice for 30 min. Cells were then washed 3 times in PBS followed by incubation in blocking buffer (PBS+0.1% TritonX100 (VWR; EM-9400)+5% donkey serum (Jackson Immunoresearch; 017-000-121)) on ice for 1 hour. After fixation cells are more resistant to centrifugation, so after fixation all centrifugations were done at 3000 g for 3 min. Cells were then resuspended in blocking buffer with primary antibodies and incubated at 4° C. overnight. […]

For test [3], the system named is SC-β cells. The test is described as follows: Insulin secretion of plated SC-β cells treated with anti-diabetic drugs in 2 and 20 mM glucose. The following applies: drug-treated versus control. From the text:
The inventors first tested whether SC-β cells could respond to existing anti-diabetic drugs from several different classes (FIG. 16B). LY2608204 is glucokinase activator in clinical trials while liraglutide, tolbutamide, and nateglinide are examples of GLP-1 agonists and secretagogues (sulfonylureas and meglitinides), respectively, that have been used clinically (Matschinsky, 2009; Modi, 2007; Vetere et al., 2014).

Turning to `Cc1nn(-c2ccccc2)c(C)c1/C=N/N1CCN(Cc2ccccc2)CC1` [Sant1], in test [1], the “stimulation index (ratio of insulin secreted in high glucose to low glucose)” value is “greater” and the “amount of insulin secreted” value is given as “greater”.

As to `NC(=O)c1cccnc1` [Nicotinamide], the cell survival result in test [2] was “improve cell survival”.

Regarding `CCCCNC(=O)NS(=O)(=O)c1ccc(C)cc1` [tolbutamide], in test [3], the “insulin secretion of SC-β cells following a glucose challenge” value (“insulin secretion” for short) is reported as “trend toward responding to treatment with these drugs by increasing insulin secretion”.

On to `CN[C@@H]1C[C@H]2O[C@@](C)([C@@H]1OC)n1c3ccccc3c3c4c(c5c6ccccc6n2c5c31)C(=O)NC4` [staurosporine], for which, in test [2] (treatment in Steps 5-6), the “percentage of Chromogranin A (pancreatic endocrine cell marker)” value was “increasing the percentage of Chromogranin A” and the “percentage of NKX6-1/C-peptide+ cells” value is on record as “increasing the percentage of NKX6-1.C-peptide+ cells”.

On to `O=C(Nc1ncc(SCCN2CCCC2)s1)[C@]1(c2ccc(S(=O)(=O)C3CC3)cc2)C[C@H]1C1CCCCC1` [LY2608204], for which the “insulin secretion” value in test [3] is “trend toward responding to treatment with these drugs by increasing insulin secretion”.

On to `CC(C)[C@H]1CC[C@H](C(=O)N[C@H](Cc2ccccc2)C(=O)O)CC1` [nateglinide], for which, in test [3], the “insulin secretion” value is reported as “trend toward responding to treatment with these drugs by increasing insulin secretion”.

As to `C[C@H](NC(=O)Cc1cc(F)cc(F)c1)C(=O)N[C@H]1N=C(c2ccccc2)c2ccccc2N(C)C1=O` [XXI], in test [1], the “stimulation index (ratio of insulin secreted in high glucose to low glucose)” value is on record as “greater” and the “amount of insulin secreted” value is “greater”. Moreover, in test [2] (added to medium with Alk5i and T3 at Steps 5 and 6, versus Alk5i and T3 only), the “NeuroD1+ population” value is on record as “increase the NeuroD1+ population”.

B1: Activin A: growth factor from the TGF-β superfamily (protein, UniProt P08476 311-426, looked up)
Inhibin beta A chain: GLECDGKVNICCKKQFFVSFKDIGWNDWIIAPSGYHANYCEGECPSHIAGTSGSSLSFHSTVINHYRMRGHSPFANLKSCCVPTKLRPMSMLYYDDGQNIIKKDIQNMIVEECGCS
modifications: Inhibin beta A chain
notes: growth factor from the TGF-β superfamily
For B1, in test [2], the cell survival result is given as “improve cell survival”.
